Measurements reported in US20020165216A1, “Cobalt-porphyrin complexes and use thereof as an anti-obesity agent” (MitoKor, priority 2000, published 2002).
“Also recorded” adds a separate entry of the source.

Assays:
[1] = Weight loss assay; type: in vivo, Male Sprague Dawley rats; details: 12 mM in vehicle, 400 μl per 100 grams body weight, subcutaneous, nuchal area, 8 days
Method: (§1) Male Sprague Dawley rats (approximately 200 g) were purchased from Charles River Canada, Inc. and were shipped to the Animal Care Facility at the University of Vermont. Upon arrival they were housed in separate cages with corncob bedding and ad lib access to tap water and purina rat chow. The animal facility is maintained at a temperature of 71° F. +/− 1° F. with a 12-hour light/dark cycle, lights on at 6:00 am and off at 6:00 pm. Two days later (Day-3) all rats were shaved in the nuchal area and baseline color photographs of the nuchal area were taken (light halothane anesthesia was utilized to facilitate the shaving). Three days later (Day 0) experimental compounds were made up at 12 mM concentrations in vehicle (i.e., saline:PEG400:EtOH (5:4:1), pH 7.4). Animals were injected subcutaneously in the nuchal area with the various stock solutions at a dose of 400 μl per 100 grams body weight. Typical injection volumes, therefore, range from 1 to 1.5 ml per animal. Animals were injected using a modified Z-track technique to try and minimize outflow of injected compounds due to the high volume utilized. Each animal was weighed prior to injection and all injections were accomplished in an approximately two-hour period. No anesthesia was utilized for injections.
Animals subsequently underwent daily weighing with a Mettler 6 second integrating balance and had ad lib access to tap water and purina rat chow. At various intervals after injections, the nuchal area of rats was again photographed. […] The scale used was 0 for no lesions, 5 for the worst lesions with breakdown of the skin and open flow of exudates. Grades in-between were estimated by the operator based on the size and severity of the lesion. […] After 8 days, final photographs were taken and all animals were euthanized, marking the end of the experiment.
Means of body weights for each group were calculated and plotted over time (FIG. 9A), as were numerical means of the lesion severity index (FIG. 9B). In FIGS. 9A and 9B, C=noninjected control, V=vehicle injected control, A=Co-MP, E=Cpd. No. (1-6) and F=Cpd. No. (4-4). […] Cpd.

[2] = rat, in vivo; cited from earlier work
[3] = test system: SH-SY5Y neuroblastoma cells; test: Cellular assay for generation of reactive oxygen species (ROS); type: cell-based; details: 30 minutes with test compound
Method: All cell culture reagents were incubated in a water bath at 37° C. for approximately 30 minutes. Existing media from a near confluent tissue culture flask containing SH-SY5Y neuroblastoma cells was aspirated using a flame sterilized glass transfer pipette attached to a trapped vacuum apparatus. Calcium free PBS buffer was pipetted into the tissue culture flask (2 ml for a 75 cm2 flask, 3 ml for a 175 cm^2 flask). The flask was tipped slightly to ensure that the buffer covers the cell culture and then the buffer was removed by aspiration. Trypsin media was pipetted into the tissue culture flask (2 ml for a 75 cm^2 flask, 3 ml for a 175 cm^2 flask) and evenly spread to ensure that the trypsin covered the cell culture. The cell culture was incubated with trypsin media for 4-6 minutes at room temperature. After cells were released from the flask, the flask was tilted to one corner. Using the existing media within the flask, the aggregated cells were collected towards one corner and repeatedly pipetted to obtain a single cell suspension. The cell suspension was transferred with a pipette into a 15 ml conical shaped centrifuge tube then cell culture media was added to the suspension up to a total volume of 14 ml. Ten μl aliquots were withdrawn and the cells were counted using a hemocytometer. The suspension was centrifuged at 200×g for 10 minutes, the supernatant was aspirated off, and the cell pellet was resuspended at 3.75×10^5 cells/ml in cell culture medium. Two hundred μl of cell suspension were aliquoted per well in the 96 well dish to obtain a final cell number of 75,000 cells per well. The plates were incubated overnight at 37° C. and 5% CO2 in a humidified cell incubator.
The medium was carefully removed from the wells by aspiration with an 18 g needle. The wells were gently rinsed once with 200 μl of warm Hanks balanced saline solution (HBSS, Gibco-BRL). […]
Stock solutions of test compound, such as Co-PP, Co-MP, or a Co-P of this invention, and of an H2O2 scavenger such as ebselen, were typically prepared in dimethylformamide or dimethylsulfoxide and diluted further into working concentrations using HBSS. […] The plate was read immediately in Cytofluor model 2350 system (Millipore; excitation wavelength: 485 nm; emission wavelength: 530 nm) for a 0 min timepoint reading. The cells were incubated for 30 minutes at room temperature with test compound following which a 30 min reading was taken. The change in RMF over the 30 minutes period was calculated for each well. […] The plate was then read in the Cytofluor (excitation wavelength: 360 nm; emission wavelength: 460 nm) and the Hoechst fluorescence values were used to normalize the DCFC-DA RMF data.

[4] = Lesion severity assay (nuchal injection site); type: in vivo, Male Sprague Dawley rats; details: scale 0 no lesions to 5 worst lesions; 12 mM, 400 μl per 100 grams body weight, subcutaneous, nuchal area, 8 days
Method: as §1, with “No anesthesia was utilized for injections.” left out
Means of body weights for each group were calculated and plotted over time (FIG. 9A), as were numerical means of the lesion severity index (FIG. 9B). […]

[5] = Oxygen consumption catalyzed by Co-P in the presence of ascorbate/TMPD (Clark oxygen electrode); details: 2 mM ascorbate, 40 μM TMPD
Method: (Co-MP). Such activity can be readily determined by, for example, the assay disclosed in Example 16. In that assay, redox activity is measured by oxygen consumption catalyzed by a Co-P test compound in the presence of ascorbate and TMPD.
Ten mM stock solutions of a Co-P of this invention (i.e., test compound) were prepared using ethanol as solvent. KCl media consists of 125 mM KCl, 2 mM K2HPO4, 20 mM HEPES, pH 7.0. Oxygen consumption measurements were carried out using a Clark type oxygen electrode (Rank Brothers Ltd., Cambridge, UK) and assay solutions were magnetically stirred during the course of the experiments. To 500 μl of assay solution (KCl media supplemented with 2 mM sodium ascorbate and 40 μM […] (TMPD)) is added 2 μl of a stock solution of test compound (40 μM final concentration) and the oxygen consumption rate is followed for 2-4 min. Subsequently, a 5 μl aliquot of a freshly made catalase solution (100 mg/ml solution in KCl media) is added to determine if H2O2 is generated via redox cycling of the test compound.
Initial rates are calculated from oxygen consumption slopes and rate of a solvent control is subtracted. […] An aliquot of a 10 mM stock solution of Co-MP (final concentration of 40 μM) was added to assay buffer containing 2 mM of ascorbate and 40 μM of TMPD. […] Addition of catalase results in conversion of H2O2 present in the assay solution to O2 and H2O.
Stock solutions of the test compound were at 10 mM. Aliquots of the stock solutions were added to 500 μl of assay buffer containing 2 mM of ascorbate and 40 μM of TMPD.
Representative Co-P compounds of this invention were prepared by the procedures disclosed above, and assayed by the procedure of Example 16 to measure oxygen consumption catalyzed by the test compound in the presence of ascorbate/TMPD. […] The above procedure was then repeated for other representative Co-P compounds of this invention, but utilizing different ligands and/or R groups.

Substance: cobalt mesoporphyrin [Co-MP]
- body weight response [1]: greatest body weight response
- body weight regulating effect compared with Co-PP [2]: comparable biological profile
- generation of reactive oxygen species (DCFC-DA fluorescence) [3]: reactive oxygen species were induced
- lesion severity [4]: greatest lesion severity
- Relative Rate (oxygen consumption), effect of ligand ([5]; Table 1, Co-MP with L1 = L2 varied, 40 μM test compound, normalized to chloride salt of Co-MP = 1): 1 (assigned value)
- Relative Rate (oxygen consumption), effect of ligand and R5 moiety ([5]; Table 2, 40 μM test compound, normalized to chloride salt of Co-MP = 1): 1 (assigned value)
- Relative Rate (oxygen consumption), effect of ligand, R5 and A moiety ([5]; Table 3, 40 μM test compound, normalized to chloride salt of Co-MP = 1): 1 (assigned value)
- Relative Rate (oxygen consumption), effect of ligand, R5, A and n moiety ([5]; Table 4, 40 μM test compound, normalized to chloride salt of Co-MP = 1): 1.0 (assigned
- O2 consumption / redox cycling (in words) ([5]; cell free ascorbate/TMPD system): immediate depletion of dissolved O2; also recorded: triggers robust consumption of O2
